Assay results taken from article PMC10610289, “Novel Baicalein-Derived Inhibitors of Plasmodium falciparum” (Pathogens, 2023).
Entries after “also recorded” stand apart in the source; their conditions may differ. Read-outs that look alike come from different tables or passages of the source.

What was measured:
[1] = system: Dd2 GNF156 (Pfcarl Ile1139Lys); experiment: Cross-resistance panel, Dd2 GNF156; type: cell-based, Plasmodium falciparum
Method: (§1) Parasite lines used in the study were P. falciparum 3D7 (Pf3D7 Chloroquine-sensitive) and Plasmodium falciparum K1 (PfK1 Chloroquine-resistant) sourced from the Malaria Research and Reference Reagent Resource Center (MR4), ATCC, Manassas, VA, USA. FNDR-10132 was tested against a cross-resistance panel at Swiss TPH, Allschwil, Switzerland.

[2] = Body weight of mice during treatment; type: in vivo, Swiss mice; conditions: 100 mg/kg oral
Excerpt: One crucial aspect of evaluating potential malaria treatments is assessing their safety and tolerance in the host organism. In this regard, the present study closely monitored the body weights of the mice throughout the drug treatment.

Plasma stability = type: in vitro ADME
Excerpt: Table 5 The compound FNDR-10132 progression profile. | column: FNDR-10132

[3] = system: Dd2 DDD107498 (PfeEF2 Y186N); experiment: Cross-resistance panel, Dd2 DDD107498; type: cell-based, Plasmodium falciparum
Method: as §1

[4] = system: P. falciparum female gametocytes; experiment: P. falciparum dual gamete formation assay (PfDGFA), female; type: cell-based; conditions: Plasmodium falciparum, read-out: DGF Assay—Inhibition, female
Method: The FNDR-10132 was evaluated in a male and female gametocyte functional viability assay by following the procedure described in Ruecker et al..

[5] = system: Plasmodium falciparum K1 (chloroquine-resistant); experiment: Antimalarial assay (IC50 determination), asexual blood stage, SYBR green; type: cell-based; conditions: read-out: ABS Assay Pf (K1)
Method: as §1
(§2) As per the modified protocol stated by Trager and Jensen, 1976, Plasmodium falciparum parasite lines (Pf3D7 and PfK1) were cultured. Plasmodium strains were maintained in RPMI-1640 medium at 3–5% hematocrit supplemented with 0.2% w/v glucose, 0.5% w/v AlbuMaxII, 0.2% w/v NaHCO3, and 30 μg/mL gentamycin, and, additionally, 15 μM hypoxanthine was added and incubated at 37 °C with 5% O2, 5% CO2, and 90% N2. After 24 h, the medium was changed. After attaining high parasitemia (6–8% mature stage parasite), the culture was sub-passaged with fresh human RBCs.
(§3) All tested compounds were dissolved in a DMSO solvent and a prepared stock solution of 10 mM. The reference drug, Chloroquine diphosphate, was dissolved in CRPMI. Working solutions were made from stock solution after diluting in a CRPMI medium during the experiment. The maximum concentration of DMSO used in this study was <1%. It had no parasiticidal effect.
(§4) The P. falciparum (0.8–1% parasitemia and 1% hematocrit) synchronous culture was exposed for 72 h (at 37 °C, 5% O2, 5% CO2, and 90% N2) to the serially diluted compound in 96-well plates. A total of 100 µL of RBCs lytic buffer (5 mM EDTA, 20 mM Tris pH 7.5, 0.08% Triton X-100, and 0.008% Saponin) containing the SYBR green 1-X final concentration was distributed to each well and incubated for one hour at room temp in the dark. The plates were read under a fluorescence reader at an excitation of 485 ± 20 nm and emission of 535 ± 25 nm. The IC50 values were calculated based on the DNA content of the parasite relative to its control. An inhibitory concentration of 50% (IC50) was determined using the MS-EXEL template.

[6] = system: Plasmodium falciparum 3D7 (chloroquine-sensitive); experiment: as above; type: cell-based; conditions: Plasmodium falciparum
Method: as §1, §2, §3, §4

Dd2 DSM265 (Pfdhodh) = experiment: Cross-resistance panel, Dd2 DSM265; type: cell-based, Plasmodium falciparum
Method: as §1

[7] = system: Dd2 ELQ300 (PfcytB Ile22Leu); experiment: Cross-resistance panel, Dd2 ELQ300; type: cell-based, Plasmodium falciparum
Method: as §1

## CCCCCCc1ccc(-c2cc(=O)c3c(O)c(O)c(O)cc3o2)cc1 [FNDR-10132]
[1]; Plasmodium falciparum, DD2
  IC50: 0.292 µM
[1]; strain Dd2 GNF156
  Fold shift IC50 rel. Dd2: 0.9
[2]
  Weight of Mice Day after the Last Dose of Treatment (Day 4): 27.5 gm
  Weight of Mice at the Initiation of Treatment (Day 0): 25 gm
  weight loss / tolerability (in words): no significant weight loss; also recorded: well-tolerated
[2]; Day 0 to Day 4
  Weight Gain: 2.5 gm
Plasma stability; at 30 min
  Plasma Stability: 87.61%
Plasma stability; at 45 min
  Plasma Stability: 80.97%
[3]; Plasmodium falciparum, DD2
  IC50: 0.211 µM
[3]; strain Dd2 DDD107498
  Fold shift IC50 rel. Dd2: 0.6
[4]
  inhibition at 1 µM: 9.5%
[5]
  IC50: 0.177 µM
[6]; 3D7, 72 h, P. falciparum 3D7, 72 h exposure, read-out: IC50
  IC50: 0.06 µM
[6]; 3D7, chloroquine-sensitive 3D7, read-out: ABS Assay Pf (3D7)
  IC50: 0.06 µM
Dd2 DSM265 (Pfdhodh); Plasmodium falciparum
  IC50: 0.261 µM
Dd2 DSM265 (Pfdhodh); strain Dd2 DSM265
  Fold shift IC50 rel. Dd2: 0.8
[7]; Plasmodium falciparum, DD2
  IC50: 0.238 µM
[7]; strain Dd2 ELQ300
  Fold shift IC50 rel. Dd2: 0.7
